From patent EP1377579B1 (Aventis Pharmaceuticals Inc., priority 2000, dated 2002)
Structures can show the parent of a compound that is named as a salt. Where two headings read alike, the source gives them in different places.

Experiments:
[1] = tested on: MDA-MB-435; assay: In vitro proliferation assay (MTT), MDA-MB-435; assay type: cell-based, human; details: Homo sapiens
In short: (§1)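 Step one: plate 1000 to 2500 cells per well and let them recover overnight. Step two: treat with compound for 3 days. Step three: add MTT, dissolve dye in DMSO, read absorbance at 570 nm and determine IC50.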

[2] = tested on: NCI-H460; assay: In vitro proliferation assay (MTT), NCI-H460; assay type: cell-based; details: Homo sapiens
In short: (§2)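 IC50 values come from live-cell estimates based on MTT reduction measured at 570 nm after 3 days of compound treatment. Cells are seeded at 1000 to 2500 per well in serum-supplemented RPMI 1640. They are stained with MTT for 2 to 4 hr at 37 C and the dye is then taken up in DMSO.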

[3] = tested on: HL-60; assay: In vitro proliferation assay (MTT), HL-60; assay type: cell-based; details: Homo sapiens
In short: as §2

[4] = tested on: Jurkat; assay: In vitro proliferation assay (MTT), Jurkat; assay type: cell-based; details: Homo sapiens, MTT assay, value (SD, n) where given, read-out: Jurkat Leuk. (IC50 µM)
In short: as §2

[5] = tested on: PC-3; assay: In vitro proliferation assay (MTT), PC-3; assay type: cell-based, human; details: Homo sapiens
In short: as §1

[6] = tested on: Colo-205; assay: In vitro proliferation assay (MTT), Colo-205; assay type: cell-based; details: Homo sapiens
In short: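 After 3 days of compound exposure, MTT was added to Colo-205 cultures for 2–4 h at 37 °C. Formazan was dissolved in DMSO and absorbance read at 570 nm. Cells had been plated at 1000–2500/well and left to recover overnight; IC50 values came from the raw readings.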

[7] = tested on: neuronally differentiated PC12 cells, rat sympathetic neurons; details: cited from earlier work; for concentration of maximal protection from death: camptothecin-treated PC12 cells or rat sympathetic neurons; for cell death: camptothecin-treated, at day 6
[8] = tested on: cortical neuronal death; details: cited from earlier work; for IC50: Park et al. 1997, read-out: IC50, protection against camptothecin-induced cortical neuronal death
[9] = target: cdk4/cyclin D1 (Homo sapiens, UniProt P11802); assay: Cyclin-dependent kinase assay, cdk4/cyclin D1; assay type: biochemical; details: cyclin D1/cdk4; GST-pRb substrate, 10 µM ATP
[10] = tested on: PC-3 Human Prostate Tumors; assay: PC-3 human prostate tumor xenograft in nude mice; assay type: in vivo; set-up: unit not given here; details: Table 5
Method: (§3) Antitumor efficacy is assessed using two subcutaneous human tumor xenograft models. The studies are performed using conventional assay techniques. Briefly, HL-60 (leukemia, 5 x10^5 cells) and PC-3 (prostate, 5 x 10^6 cells) tumor cells are injected subcuateously into nude mice (Crl-CD1-Br-nu, Charles River Laboratory, Wilmington, MA). Dosing with compounds began when tumors reached 50 to 100 mm^3. The dose route/schedule for the test compounds is ip/qld (5x/wk). The test doses are set based on the maximum tolerated dose (MTD). […] The test doses for the efficacy studies are set at 1/3rd the MTD (low dose) and the MTD (high dose). The results are shown in Tables 4 and 5 (HL-60, leukemia) (PC-3, prostate cancer). The length of the treatment phase is dependent on the tumor growth rate for the two models. This treatment phase is typically about 3 weeks for the HL-60 model and about 5 weeks for the PC-3 model. […] Dosing with flavopiridol is for the same time frame as for the experimental compounds in both xenograft models. Tumor volume (twice weekly) and body weights (once weekly) are monitored throughout the course of the treatment phase of the experiment. Tumor sizes are measured by external caliper measurements of protruding tumor. Volumes are calculated using the following formula: volume =½ (a x b2), where b is the smaller of two perpendicular diameters.

[11] = tested on: HL-60 Human Leukemia; assay: HL-60 human leukemia xenograft in nude mice; assay type: in vivo; details: Table 5
Method: as §3

[12] = target: cdk1/cyclin B (Homo sapiens, UniProt P06493); assay: Cyclin-dependent kinase assay, cdk1/cyclin B; details: CDK1 IC50, nM, Histone H1, 10 µM ATP
[13] = target: cdk2/cyclin E (Homo sapiens, UniProt P24941); assay: Cyclin-dependent kinase assay, cdk2/cyclin E; details: CDK2 IC50, nM, GST-pRb substrate, 10 µM ATP
[14] = Red blood cell binding, human whole blood; assay type: in vitro ADME; details: 30 minutes at 37°C, 500 ng/ml
Method: (§4) Compounds, including one positive control, are assessed for red blood cell (RBC) uptake, using a modified procedure based on the protocol reported in Sun, J.X.S., et al. High-performance liquid chromatographic analysis, plasma protein binding and red blood cell partitioning of phenprobamate. Biopharmaceutics and Drug Disposition, 8 (1987) 341-351.
(§5) Briefly, RBC uptake is evaluated by comparison of the levels in spiked plasma (n=3) and plasma isolated from spiked whole blood (n=3). Compounds are incubated with human and mouse whole blood, respectively, for 30 minutes at 37°C using a nominal concentration of 500 ng/ml. Following centrifugation, the plasma is removed and submitted for analysis. Each compound is also spiked into blank plasma at a nominal concentration of 500 ng/ml, and submitted for analysis. Levels in the two plasma samples (Cp' and Cp in the equation below) and the blood hematocrit are used to determine the red blood cell to plasma ratio (Crbc/Cp). (Crbc)/(Cp) = (Cpʹ)/(Cp•H)-((1-H))/(H) [formula] In equation 1, Cp' is the level of drug in the spiked "blank" plasma, Cp is the level of drug in the plasma of spiked whole blood, and H is the hematocrit. The hematocrit values are determined as 0.4 for human whole blood and 0.41 for mouse whole blood. The samples are analyzed with ESI LC/MS, using positive ion detection with an internal standard.
(§6) The red blood cell to plasma ratio is determined for each compound using equation 1. Tables 6 and 7 summarize the respective mean Crbc/Cp values and standard deviations for mouse and human whole blood, respectively, in descending order based on the red blood cell to plasma ratio, where"*" denotes Positive Control, and "ND" denotes Not Determined. MDL 108552 is included as a positive control for red blood cell uptake. Table 6. Red Blood Cell to Plasma Ratio for compounds in mouse whole blood

[15] = in vivo; details: male, Hsd:ICR (CD-1), mouse, plasma
Method: (§7) Male mice are given single intravenous cassette doses of CDK inhibitor compounds.
(§8) Doses are adjusted for the weight of the individual dihydrochloride and trihydrochloride salts. The compounds are stored desiccated within a closed cabinet at room temperature before use. Dose levels are prepared on the morning of each study.
(§9) A single intravenous cassette dose (18 or 15 mg/kg free base) is administered. For each compound, this is equivalent to a dose of approx. 3 mg/kg free base. […] The dose is administered at a volume of 10 ml/kg (total volume of approximately 0.25 ml/animal).
(§10) Male mice (Hsd:ICR (CD-1® SD®), Harlan), each weighing approximately 20 - 30 g at the start of the study. […] Water is available ad libitum throughout the study.
(§11) Dose Administration and Sample Collection: • A single cassette dose of 5-6 compounds is administered by bolus injection into the tail vein over a 10 - 15-second period. […] Whole blood (approximately 0.6 ml/sample) is obtained by cardiac puncture and transferred to 3 ml glass tubes containing 45 U sodium heparin.
(§12) Sample Processing: Plasma: Whole blood is centrifuged at approximately 3,200 rpm for 10 min at approximately 5°C and the plasma (approx. 0.3 ml/sample) is transferred to chilled plastic vials and stored at approx. -70°C until bioanalysis.
(§13) Sample Analysis: Concentrations of each test article in plasma are quantitated by a non-validated method based on LC/MS using the following protocol.
(§14) Samples are removed from the freezer, allowed to thaw at room temperature, and vortexed to insure complete homogenization prior to sample manipulation. Samples are then prepared according to the following scheme: • 1. transfer 48 µL of plasma (blank mouse sample) into a 12 x 75 mm test tube. • 2. add 12 µL of working standard to the blank plasma for standard curve preparation. • 3. […] Inject 25 µL on LC/MS.
(§15) Data Analysis: Concentrations of Compounds in plasma of individual animals are determined by bioanalytics. […] Statistical analyses are limited to simple expressions of variation (mean and standard deviation). The plasma AUC (area-under-curve) is determined by the linear trapezoidal rule. […] All PK parameters are determined by noncompartmental methods using WinNonlin version 3.0 (Pharsight Corp). Plasma vs. time profiles are prepared by Sigma Plot (SPSS, Inc.).

[16] = Bioavailability experiment in mice given single intravenous cassette doses; details: for Cls: mice plasma, single intravenous cassette dose
Method: as §7, §8, §9, §10, §11, §12, §13, §14, §15

[17] = Red blood cell binding, mouse whole blood; assay type: in vitro ADME; details: 30 minutes at 37°C, 500 ng/ml
Method: as §4, §5, §6

[18] = MDA-MB-435, MTT assay, value (SD, n) where given, read-out: MB-435 Breast (IC50 µM)
[19] = HL-60, MTT assay, value (SD, n) where given, read-out: HL-60 Leuk. (IC50 µM)
[20] = PC-3, MTT assay, value (SD, n) where given, read-out: PC-3 Prostate (IC50 µM)
[21] = MDA-MB-435, read-out: MB-435 Breast (IC50 µM)
[22] = NCI-H460, read-out: H-460 Lung (IC50 µM)
[23] = PC-3, read-out: PC-3 Prostate (IC50 µM)
[24] = COLO 205, read-out: Colo-205 Colon (IC50 µM)
[25] = camptothecin-treated neuronal cells

Chain of cdk4/cyclin D1 (P11802 whole entry): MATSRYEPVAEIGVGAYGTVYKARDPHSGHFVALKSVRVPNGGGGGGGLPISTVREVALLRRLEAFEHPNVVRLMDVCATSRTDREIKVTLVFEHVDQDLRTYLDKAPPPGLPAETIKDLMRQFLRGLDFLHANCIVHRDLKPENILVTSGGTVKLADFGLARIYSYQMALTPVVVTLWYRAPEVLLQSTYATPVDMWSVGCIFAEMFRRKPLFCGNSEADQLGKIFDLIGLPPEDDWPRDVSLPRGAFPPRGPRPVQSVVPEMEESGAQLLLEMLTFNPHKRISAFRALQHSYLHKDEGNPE
Chain of cdk4/cyclin D1 (P24385 whole entry partner): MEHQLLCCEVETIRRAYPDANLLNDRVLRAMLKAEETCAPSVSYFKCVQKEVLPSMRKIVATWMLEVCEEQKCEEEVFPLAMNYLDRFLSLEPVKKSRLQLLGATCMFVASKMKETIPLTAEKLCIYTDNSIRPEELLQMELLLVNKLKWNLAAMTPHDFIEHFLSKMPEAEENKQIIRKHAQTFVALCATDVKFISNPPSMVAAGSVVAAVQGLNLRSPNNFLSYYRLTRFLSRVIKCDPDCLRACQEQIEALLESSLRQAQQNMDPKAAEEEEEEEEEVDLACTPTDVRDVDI
Chain of cdk1/cyclin B (P06493 whole entry): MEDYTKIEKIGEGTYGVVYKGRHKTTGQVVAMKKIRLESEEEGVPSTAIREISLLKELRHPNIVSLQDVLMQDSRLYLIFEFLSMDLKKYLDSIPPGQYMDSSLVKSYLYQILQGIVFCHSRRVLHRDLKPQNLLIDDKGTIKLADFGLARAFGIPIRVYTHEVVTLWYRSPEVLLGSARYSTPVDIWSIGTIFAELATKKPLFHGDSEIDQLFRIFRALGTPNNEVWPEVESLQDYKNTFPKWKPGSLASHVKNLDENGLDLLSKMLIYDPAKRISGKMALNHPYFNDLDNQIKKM
Chain of cdk1/cyclin B (P14635 whole entry partner): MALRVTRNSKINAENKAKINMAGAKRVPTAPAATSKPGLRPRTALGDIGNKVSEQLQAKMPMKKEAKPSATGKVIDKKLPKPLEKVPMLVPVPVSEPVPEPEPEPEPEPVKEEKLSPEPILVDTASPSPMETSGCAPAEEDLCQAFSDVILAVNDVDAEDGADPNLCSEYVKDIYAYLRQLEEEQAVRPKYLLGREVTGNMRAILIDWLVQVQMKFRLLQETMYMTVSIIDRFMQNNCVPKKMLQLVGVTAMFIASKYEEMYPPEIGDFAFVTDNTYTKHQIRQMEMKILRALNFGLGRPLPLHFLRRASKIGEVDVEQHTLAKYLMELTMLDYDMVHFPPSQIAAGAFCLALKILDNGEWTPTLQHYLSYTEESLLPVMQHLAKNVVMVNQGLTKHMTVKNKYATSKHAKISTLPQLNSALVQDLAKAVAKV

| SMILES | IC50 [1, 18] [µM] | IC50 [3, 19] [µM] | IC50 [4] [µM] | IC50 [5, 20] [µM] | concentration of maximal protection from death [7] [µM] | cell death [7] | IC50 [8] [µM] | IC50 [9] [nM] | PC-3 Mean Vol. ± SD ([10]; dose 1 mg/kg ip) | PC-3 Mean Vol. ± SD ([10]; dose 3 mg/kg ip) | HL60 Mean Vol. ± SD ([11]; dose 1 mg/kg ip) | HL60 Mean Vol. ± SD ([11]; dose 3 mg/kg ip) | IC50 [12] [nM] | IC50 [13] [nM] | IC50 [1, 21] [µM] | IC50 [2, 22] [µM] | IC50 [5, 23] [µM] | Mean Red Blood Cell to Plasma Ratio [14] | IC50 [6, 24] [µM] | AUC(0-inf) ([15]; iv, 3 mg/kg) [ng·h/mL] | also measured |
| --- | --- | --- | --- | --- | --- | --- | --- | --- | --- | --- | --- | --- | --- | --- | --- | --- | --- | --- | --- | --- | --- |
| CN1CC[C@H](c2c(O)cc(O)c3c(=O)cc(-c4ccccc4Cl)oc23)[C@H](O)C1 [Flavopiridol, flavopiridol, reference compound] | 0.09 | 0.02 | 0.08 | 0.08 | 1 | approximately 30% | 0.1 |  |  |  |  |  |  |  |  |  |  |  |  |  | IC50 ([2]; NCI-H460, MTT assay, value (SD, n) where given, read-out: H-460 Lung (IC50 µM)): 0.07 µM; IC50 ([6]; COLO 205, MTT assay, value (SD, n) where given, read-out: Colo-205 Colon (IC50 µM)): 0.03 µM |
| Cn1cnc2c(NCc3ccccc3)nc(NCCO)nc21 [Olomoucine, 6-(benzylamino)-2-[(2-hydroxyethyl)amino]-9-methylpurine] |  |  |  |  | 200 | approximately 30% | 100 |  |  |  |  |  |  |  |  |  |  |  |  |  |  |
| N[C@H]1CC[C@H](Nc2nc(NC3CCN(C(=O)c4cccc(C(F)(F)F)c4)CC3)c3ncn(C4CCCC4)c3n2)CC1 [compound 3, dihydrochloride] | 0.25 | 0.13 | 0.22 | 0.66 |  |  |  | 1120 | 671 ± 672 | 785 ± 473 | 6370 ± 4655 | 6092 ± 4278 | 55 | 48 |  |  |  |  |  |  |  |
| Cc1ccc(OC(=O)N2CCC(Nc3nc(N[C@H]4CC[C@H](N)CC4)nc4c3ncn4C3CCCC3)CC2)cc1.Cl.Cl [compound 82, trans-4-[2-(4-Amino-cyclohexylamino)-9-cyclopentyl-9H-purin-6-ylamino]-piperidine-1-carboxylic acid p-tolyl ester dihydrochloride] |  |  |  |  |  |  |  | 131 | 810 ± 600 | 967 ± 407 | 5164 ± 55516 | 2841 ± 1845 | 31 | 45 | 0.06 | 0.08 | 0.12 | 5.8 | 0.06 | 944 | IC50 ([3]; HL-60, read-out: HL-60 Leuk. (IC50 µM)): 0.04 µM; concentration at 0.083 h ([15]; intravenous, 3 mg/kg): 1460 ± 77.4 ng/mL; concentration at 0.25 h ([15]; intravenous, 3 mg/kg): 875 ± 96.7 ng/mL; concentration at 0.5 h ([15]; intravenous, 3 mg/kg): 370 ± 40 ng/mL; concentration at 1 h ([15]; intravenous, 3 mg/kg): 134 ± 16.3 ng/mL; concentration at 3 h ([15]; intravenous, 3 mg/kg): 37.5 ± 10.7 ng/mL; concentration at 6 h ([15]; intravenous, 3 mg/kg): 14.5 ± 3.4 ng/mL; concentration at 8 h ([15]; intravenous, 3 mg/kg): 12.3 ± 2.2 ng/mL; Cmax ([15]; iv, 3 mg/kg): 1460 ng/mL; half-life ([15]; iv, 3 mg/kg): 180 min; Cls ([16]; 3 mg/kg/compound (15 mg/kg Total Dose), Cassette #4): 53.0 mL/min/kg; Conc. in plasma ([16]; mice, single 15 mg/kg intravenous cassette dose (3 mg/kg/compound), Cassette #4, 24 h, BLQ = below assay quantification limit (approximately 1 ng/ml)): BLQ |
| Cl.Cl.N[C@H]1CC[C@H](Nc2nc(NC3CCN(C(=O)Oc4ccccc4)CC3)c3ncn(C4CCCC4)c3n2)CC1 [compound 85, trans-4-[2-(4-Amino-cyclohexylamino)-9-cyclopentyl-9H-purin-6-ylamino]-piperidine-1-carboxylic acid phenyl ester dihydrochloride] |  |  |  |  |  |  |  | 65 | 912 ± 755 | 1208 ± 1247 | 3590 ± 2674 | 5215 ± 4068 | 26 | 8 | 0.03 | 0.06 | 0.06 | 7.1 | 0.03 | 467 | Mean Red Blood Cell to Plasma Ratio [17]: 6.1; Cmax ([15]; iv, 3 mg/kg): 843 ng/mL; half-life ([15]; iv, 3 mg/kg): 138 min; concentration at 0.083 h ([15]; iv, 18 mg/kg): 843 ± 124 ng/mL; concentration at 0.25 h ([15]; iv, 18 mg/kg): 342 ± 45.1 ng/mL; concentration at 0.5 h ([15]; iv, 18 mg/kg): 164 ± 15.7 ng/mL; concentration at 1 h ([15]; iv, 18 mg/kg): 89 ± 21.5 ng/mL; concentration at 3 h ([15]; iv, 18 mg/kg): 14.3 ± 7.1 ng/mL; concentration at 6 h ([15]; iv, 18 mg/kg): 5.2 ± 1.9 ng/mL; concentration at 8 h ([15]; iv, 18 mg/kg): 3.2 ± 0.8 ng/mL; Conc. (ng/ml) in plasma ([16]; Cassette #1, single 18 mg/kg intravenous cassette dose, mice, 24 h, BLQ = below assay quantification limit): BLQ; Cls ([16]; 3 mg/kg/compound (18 mg/kg Total Dose), Cassette #1): 107.1 mL/min/kg |
| Cn1cnc2nc(NCCO)nc(NCc3ccccc3)c21 [iso-olomoucine] |  |  |  |  |  |  |  |  |  |  |  |  |  |  |  |  |  |  |  |  | prevention of cell death [7, 25]: failed to prevent the cell death; prevention of cell death [8, 25]: failed to prevent the cell death |
